Measurements published in patent US20260223843A1, “I[…]” (FYTEKO SA, priority 2022, published 2026).

Legend:
Assay type in all cases: in vivo
[1] = system: brown plant hopper (Nilaparvata lugens); experiment: Control of the brown plant hopper in rice plants (spray, mortality); details: mortality of hopper larvae on sprayed rice plants; mg/L: Polyferulate 48, Chlorantraniliprole 45, Cyantraniliprole 135, combinations 48 + 45 and 48 + 135
Procedure: To determine the efficacy of insecticides on the mortality percentage of brown planthopper an experiment was conducted in the laboratory. The seedlings of 30-40 days old rice plant (Oryza sativa) were transplanted in plastic pot. The rice plants were grown in plastic pots with Mylar film cage and kept in the laboratory. Rice plants are sprayed with the preparation of the active compound at the desired concentration and are infested with larvae of the brown plant hopper (Nilaparvata lugens) while the rice leaves are still moist. Ten brown planthopper were released in each pot that was selected randomly.
The brown planthopper (BPH), Nilaparvata lugens (Hemiptera: Delphacidae) is a planthopper species that feeds on rice plants (Oryza sativa L.). These insects are among the most important pests of rice, which is the major staple crop for about half the world's population. After 3 days, the mortality in percentage is determined. 100% means that all the hopper larvae have been killed; 0% means that none of the hopper larvae have been killed.

[2] = Insecticide uptake by leaves of rice plants (LC-MS/MS); details: chlorantraniliprole in rice leaves 72 h after smearing 5 mL; chlorantraniliprole 100 μg/mL, polyferulate 25 μg/mL where present; three replicates
Procedure: Rice plants were cultivated in a plant growth chamber with a 12 h day and high intensity lighting. The rice leaves near the roots were smeared with 5 mL of solution containing chlorantraniliprole (100 μg·mL−1) or chlorantraniliprole (100 μg·mL−1) and polyferulate solution (25 μg·mL−1) and covered. When the droplets on the leaves were dried, the plastic was taken away. The rice leaves were harvested 72 h after treated. A sample of the rice leaves (5 g) was weighted and extracted with acetonitrile and the content of uptake chlorantraniliprole determinate by LC-MS/MS. Each experiment was repeated for three replicates.

[3] = system: whitefly (Bemisia tabaci); experiment: Control of whitefly in cotton plants (translaminar efficacy); details: 2nd instar nymphs on cotton leaf, adults counted, mg/L: Polyferulate 4, Spirotetramat 18.6, Imidacloprid 21.8, combinations 4 + 18.6 and 4 + 21.8
Procedure: Three-week-old cotton plants were defoliated so that only one true leaf remained. 20-30 female adults of B. tabaci were clipped to the underside of the leaf for egg deposition and removed after 16 h. The silverleaf whitefly (Bemisia tabaci, also informally referred to as the sweet potato whitefly) is one of several species of whitefly that are currently important agricultural pests.
Once the 2nd instar nymphs had settled the upper side of the leaf was sprayed using a TLC spraying device (Merck Inc.). Before spraying the number of nymphs was counted on each leaf. The application volume was 500 μL of tested insecticides solutions diluted in tap water. The final concentration of each component appears in the table. Translaminar efficacy was evaluated by counting adults 10 days after application.

Row | SMILES | Observed efficacy (%) 3 days after treatment [1] | Content of insecticide in the plant material [2] | Observed efficacy (%) 10 days after treatment [3]
1 | CNC(=O)c1cc(Cl)cc(C)c1NC(=O)c1cc(Br)nn1-c1ncccc1Cl [Chlorantraniliprole] | 50% | 38.0 ± 0.3 µg/g | –
2 | CNC(=O)c1cc(C#N)cc(C)c1NC(=O)c1cc(Br)nn1-c1ncccc1Cl [Cyantraniliprole] | 30% | – | –
3 | O=[N+]([O-])NC1=NCCN1Cc1ccc(Cl)nc1 [Imidacloprid] | – | – | 45%
4 | CCOC(=O)OC1=C(c2cc(C)ccc2C)C(=O)N[C@]12CC[C@@H](OC)CC2 [Spirotetramat] | – | – | 75%
